Data published in EPA's ToxRefDB 2.

Experiments:
[1] = system: rat; details: Sub-acute repeat dose toxicity, sprague dawley, Oral, Gavage/Intubation, dose end: 28 day, group: systemic
[2] = system: rabbit; details: Sub-acute repeat dose toxicity; Oral; Gavage/Intubation; dose end: 5 day; group: systemic; systemic / in life observation / body weight / body weight + systemic / in life observation / clinical signs / [other] + systemic / in life …
[3] = system: rat; details: Sub-acute repeat dose toxicity; sprague dawley; Oral; Feed; dose end: 15 day; group: systemic; systemic / in life observation / body weight / body weight + systemic / in life observation / food consumption / food consumption
[4] = system: rat; details: Chronic toxicity; sprague dawley; Oral; Gavage/Intubation; dose end: 181 day; group: systemic; systemic / in life observation / body weight / body weight gain + systemic / hematology / reticulocyte / reticulocyte + systemic / pathology…
[5] = system: dog; details: Chronic toxicity, beagle, Oral, Gavage/Intubation, dose end: 363 day, group: systemic
[6] = system: mouse; details: Sub-acute repeat dose toxicity; Oral; Gavage/Intubation; dose end: 29 day; group: systemic; systemic / clinical chemistry / glucose / glucose + systemic / clinical chemistry / urea nitrogen / urea + systemic / hematology / leukocyte…
[7] = system: primate; details: Sub-acute repeat dose toxicity; Oral; Gavage/Intubation; dose end: 6 day; group: systemic; systemic / in life observation / clinical signs / arrhythmia + systemic / in life observation / clinical signs / emesis + systemic / in life…
[8] = system: mouse; details: Subchronic oral toxicity in rodents, Gavage/Intubation, dose end: 91 day, group: systemic, systemic / in life observation / body weight / body weight gain + systemic / organ weight / heart / absolute + systemic / organ weight / …
[9] = system: dog; details: Sub-acute repeat dose toxicity; beagle; Oral; Gavage/Intubation; dose end: 30 day; group: systemic; systemic / in life observation / body weight / body weight gain + systemic / organ weight / liver / absolute + systemic / organ weight / …
[10] = system: rat; details: Prenatal developmental toxicity study, sprague dawley, Oral, Gavage/Intubation, dose end: 18 GD
[11] = system: rat; details: Prenatal developmental toxicity study, sprague dawley, Injection, Subcutaneous, dose end: 8 GD
[12] = system: rat; details: Prenatal developmental toxicity study; wistar; Oral; Gavage/Intubation; dose end: 15 GD; group: developmental; developmental / developmental malformation / bone / incomplete ossification + developmental / developmental malformation / bone / …
[13] = system: rabbit; details: Prenatal developmental toxicity study, new zealand white, Dermal, Topical, dose end: 19 GD
[14] = system: rat; details: Subchronic oral toxicity in rodents, sprague dawley, Gavage/Intubation, dose end: 12 week, group: systemic, systemic / clinical chemistry / alkaline phosphatase (alp/alk) / alkaline phosphatase (alp/alk) + systemic / clinical chemistry / albumin / …
[15] = system: rat; details: Subchronic oral toxicity in rodents, sprague dawley, Gavage/Intubation, dose end: 13 week, group: systemic
[16] = system: rat; details: Developmental neurotoxicity study, sprague dawley, Oral, Gavage/Intubation, dose end: 97 PND, group: cannot be grouped
[17] = system: rat; details: Developmental neurotoxicity study; sprague dawley; Oral; Gavage/Intubation; dose end: 90 PND; group: cannot be grouped; developmental / developmental landmark / eye opening / eye opening + reproductive / offspring survival early / dead fetuses / dead fetuses…
[18] = system: rat; details: Prenatal developmental toxicity study, wistar, Dermal, Topical, dose end: 16 GD
[19] = system: mouse; details: Sub-acute repeat dose toxicity, other, Oral, Gavage/Intubation, dose end: 21 day, group: systemic
[20] = systemic / in life observation / body weight / body weight gain + systemic / in life observation / food consumption / food consumption
[21] = systemic / in life observation / body weight / body weight gain + systemic / in life observation / food consumption / food consumption + …
[22] = systemic / in life observation / body weight / body weight gain + systemic / organ weight / liver / absolute + systemic / pathology …
[23] = systemic / organ weight / kidney / absolute + systemic / clinical chemistry / alkaline phosphatase (alp/alk) / alkaline phosphatase (alp/alk…
[24] = group: developmental, developmental / developmental malformation / bone / full supernumerary
[25] = group: maternal, systemic / in life observation / body weight / body weight + systemic / in life observation / food consumption / food consumption
[26] = group: developmental, developmental / developmental malformation / general / crown-rump length + systemic / in life observation / body weight / fetal weight
[27] = group: maternal, reproductive / reproductive performance / resorptions / resorptions + systemic / in life observation / body weight / body weight + systemic…
[28] = group: developmental, systemic / in life observation / body weight / fetal weight
[29] = group: maternal, systemic / in life observation / body weight / body weight + systemic / in life observation / body weight / body weight gain + systemic / in…
[30] = systemic / clinical chemistry / alkaline phosphatase (alp/alk) / alkaline phosphatase (alp/alk) + systemic / hematology / erythrocyte (rbc) …
[31] = systemic / in life observation / body weight / offspring (pup) weight gain
[32] = group: developmental, developmental / developmental malformation / bone / supernumerary + systemic / in life observation / body weight / fetal weight
[33] = group: maternal, systemic / in life observation / clinical signs / [other] + systemic / in life observation / clinical signs / erythema + systemic / in life …
[34] = systemic / clinical chemistry / alkaline phosphatase (alp/alk) / alkaline phosphatase (alp/alk) + systemic / pathology microscopic / bone / …
[35] = systemic / hematology / hematocrit (hct) / hematocrit (hct) + systemic / hematology / hemoglobin (hgb) / hemoglobin (hgb)

CN1N=C2CCN(C(=O)[C@@H](COCc3ccccc3)NC(=O)C(C)(C)N)C[C@@]2(Cc2ccccc2)C1=O [Capromorelin]
LEL [1, 20]: 1 mg/kg/day
NEL [1, 20]: < 1 mg/kg/day
LOAEL [1, 21]: > 75 mg/kg/day
NOAEL [1, 21]: ≥ 75 mg/kg/day
LOAEL [2]: > 150 mg/kg/day
NEL [2]: 50 mg/kg/day
NOAEL [2]: ≥ 150 mg/kg/day
LEL [3]: 1200 mg/kg/day
LOAEL [3]: > 1200 mg/kg/day
NOAEL [3]: ≥ 1200 mg/kg/day
LEL [4]: 1 mg/kg/day
LOAEL [4]: > 75 mg/kg/day
NEL [4]: < 1 mg/kg/day
NOAEL [4]: ≥ 75 mg/kg/day
LEL [5, 22]: 7 mg/kg/day
NEL [5, 22]: < 7 mg/kg/day
LOAEL [5, 23]: > 40 mg/kg/day
NOAEL [5, 23]: ≥ 40 mg/kg/day
LEL [6]: 3 mg/kg/day
LOAEL [6]: > 300 mg/kg/day
NEL [6]: < 3 mg/kg/day
NOAEL [6]: ≥ 300 mg/kg/day
LEL [7]: 1 mg/kg/day
LOAEL [7]: > 3 mg/kg/day
NEL [7]: < 1 mg/kg/day
NOAEL [7]: ≥ 3 mg/kg/day
LEL [8]: 30 mg/kg/day
LOAEL [8]: > 300 mg/kg/day
NEL [8]: < 30 mg/kg/day
NOAEL [8]: ≥ 300 mg/kg/day
LEL [9]: 40 mg/kg/day
LOAEL [9]: > 40 mg/kg/day
NEL [9]: 7 mg/kg/day
NOAEL [9]: ≥ 40 mg/kg/day
LOAEL [10, 24]: > 75 mg/kg/day
NEL [10, 24]: < 1 mg/kg/day
NOAEL [10, 24]: ≥ 75 mg/kg/day
LOAEL [10, 25]: > 75 mg/kg/day
NOAEL [10, 25]: ≥ 75 mg/kg/day

CC1=C(/C=C/C(C)=C/C=C/C(C)=C/C(=O)O)C(C)(C)CCC1 [trans-Retinoic acid]
LEL [11, 26]: 48.1 mg/kg/day
LOAEL [11, 26]: > 144 mg/kg/day
NEL [11, 26]: 24 mg/kg/day
NOAEL [11, 26]: ≥ 144 mg/kg/day
LOAEL [11, 27]: > 144 mg/kg/day
NEL [11, 27]: 48.1 mg/kg/day
NOAEL [11, 27]: ≥ 144 mg/kg/day
LEL ([11]; group: maternal, systemic / in life observation / body weight / body weight + systemic / in life observation / clinical signs / abnormal gait + systemic / in…): 96.1 mg/kg/day
LEL [12]: 5 mg/kg/day
LOAEL [12]: > 10 mg/kg/day
NEL [12]: 2.5 mg/kg/day
NOAEL [12]: ≥ 10 mg/kg/day
LEL [13, 28]: 0.5 mg/kg/day
LOAEL [13, 28]: > 0.5 mg/kg/day
NEL [13, 28]: 0.05 mg/kg/day
NOAEL [13, 28]: ≥ 0.5 mg/kg/day
LEL [13, 29]: 0.05 mg/kg/day
LOAEL [13, 29]: > 0.5 mg/kg/day
NEL [13, 29]: < 0.05 mg/kg/day
NOAEL [13, 29]: ≥ 0.5 mg/kg/day
LEL [14]: 0.5 mg/kg/day
LOAEL [14]: > 5 mg/kg/day
NEL [14]: < 0.5 mg/kg/day
NOAEL [14]: ≥ 5 mg/kg/day
LOAEL [15, 30]: > 50 mg/kg/day
NEL [15, 30]: 1 mg/kg/day
NOAEL [15, 30]: ≥ 50 mg/kg/day
LEL ([15]; systemic / clinical chemistry / alkaline phosphatase (alp/alk) / alkaline phosphatase (alp/alk) + systemic / pathology microscopic / lymph …): 4 mg/kg/day
LOAEL [16, 31]: > 6 mg/kg/day
NOAEL [16, 31]: ≥ 6 mg/kg/day
LEL ([16]; systemic / in life observation / clinical signs / impaired foot spread): 2.5 mg/kg/day
LEL [17]: 2.5 mg/kg/day
LOAEL [17]: > 2.5 mg/kg/day
NEL [17]: < 2.5 mg/kg/day
NOAEL [17]: ≥ 2.5 mg/kg/day
LEL ([18]; group: developmental, developmental / developmental malformation / bone / supernumerary): 2.5 mg/kg/day
LOAEL [18, 32]: > 20 mg/kg/day
NEL [18, 32]: 1 mg/kg/day
NOAEL [18, 32]: ≥ 20 mg/kg/day
LOAEL [18, 29]: > 20 mg/kg/day
NOAEL [18, 29]: ≥ 20 mg/kg/day
LEL [18, 33]: 1 mg/kg/day
NEL [18, 33]: < 1 mg/kg/day
LOAEL [19, 34]: > 100 mg/kg/day
NOAEL [19, 34]: ≥ 100 mg/kg/day
LEL [19, 35]: 3 mg/kg/day
NEL [19, 35]: < 3 mg/kg/day
